Test results taken from patent publication US20090011103A1, “Composition comprising polyphenol” (Conopco, Inc. d/b/a Unilever, priority 2007, published 2009).

Key:
[1] = meeting abstract of Experimental biology 2007; read-out: vasorelaxing properties, 50% dose; cited from earlier work
[2] = system: mesenteric resistance arteries of SHR; experiment: Reactivity of isolated arteries: dilator effect during contraction induced by 40 mmol/L K+; parameters: species or system Spontaneously Hypertensive Rats (SHR)
Description: Segments of 2nd order mesenteric artery side branches were isolated from 14 weeks old male Spontaneously Hypertensive Rats (SHR). Two stainless-steel wires (diameter 40 μm) were inserted in the lumen of the arterial segments, which were then mounted in organ chambers between an isometric force transducer and a displacement device (Danish Myotechnology by J. P. Trading, Denmark). The organ chambers were filled with Krebs-Ringer bicarbonate solution which was maintained at 37° C. and continuously aerated with 95% O2 and 5% CO2. Before the actual experiments started, arterial segments were stretched to their individual optimal lumen diameter for mechanical performance, i.e. the diameter at which maximal contractile responses to noradrenaline (10 μmol/L) were obtained. In each experiment four second order mesenteric resistance arterial segments from one animal were mounted in individual organ chambers and studied in parallel. […]
For the analysis of the acute effects of the mixtures on K+-induced contraction, increasing concentrations of the mixtures (0.1-100 umol/L) were administered on top of the stable contractions and were left in contact with the arterial segments for 5-7 min to make sure that either no effect or a stable effect was reached. […] In this way, the effects of different exposure times to the mixtures (7, 30 and 90 min) on K+-induced contraction, could be evaluated. […]
Active wall tension (AWT) was calculated by subtracting the resting wall tension.
All contractile responses (AWT in the presence of stimuli, solvent and mixes of ingredients) were next expressed as a percentage of the contractile response (AWT) to 10 uM noradrenaline at the end of the normalisation period, i.e. before exposure of the arterial segments to solvent or mixes of ingredients.
Effects of increasing concentrations of the solvent and of the mixes (0.1 to 100 umol/L) during contractile responses to 40 mmol/L K+, were calculated as % change of the level of pre-contraction. […]

Structure (SMILES): O=C(O)C=Cc1ccc(O)cc1 [p-coumaric acid, 3-(4-hydroxyphenyl)-2-prepenoic acid]
- EC50 [1]: 0.03 µM
- influence on the dilation of the arteries ([2]; at a low concentration, by comparing the effect of different mixtures): significant influence on the dilation of the arteries
- EC50 ([2]; isolated SHR mesenteric arteries, K+ (40 mmol/L) pre-contraction, deduced by comparing different mixtures (Plackett-Burman design), corrected for solvent, read-out: EC50 of dilation of the arteries): 7.5 µM
- concentration at which maximum dilatation was obtained ([2]; isolated SHR mesenteric arteries, K+ (40 mmol/L) pre-contraction, mixtures 0.1-100 umol/L): 100 µM
